According to PubChem BioAssay (NCI):
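Abbreviation: GI50, concentration required for 50% inhibition of growth. The concentration for full growth arrest is given as TGI.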

Legend:
Experiment in all cases: growth of human tumour cells (NCI), 384-well format
786-0 renal = system: 786-0 renal
A498 renal = system: A498 renal
A549 NSCLC = system: A549 NSCLC
ACHN renal = system: ACHN renal
BT-549 breast = system: BT-549 breast
CAKI-1 renal = system: CAKI-1 renal
CCRF-CEM leukemia = system: CCRF-CEM leukemia
COLO 205 colon = system: COLO 205 colon
DU-145 prostate = system: DU-145 prostate
EKVX NSCLC = system: EKVX NSCLC
HCC-2998 colon = system: HCC-2998 colon
HCT-15 colon = system: HCT-15 colon
HL-60(TB) leukemia = system: HL-60(TB) leukemia
HOP-62 NSCLC = system: HOP-62 NSCLC
HOP-92 NSCLC = system: HOP-92 NSCLC
HS 578T breast = system: HS 578T breast
HT29 colon = system: HT29 colon
IGROV1 ovarian = system: IGROV1 ovarian
K-562 leukemia = system: K-562 leukemia
KM12 colon = system: KM12 colon
LOX IMVI melanoma = system: LOX IMVI melanoma
M14 melanoma = system: M14 melanoma
MALME-3M melanoma = system: MALME-3M melanoma
MCF7 breast = system: MCF7 breast
MDA-MB-231 breast = system: MDA-MB-231 breast
MDA-MB-435 melanoma = system: MDA-MB-435 melanoma
MDA-MB-468 breast = system: MDA-MB-468 breast
MOLT-4 leukemia = system: MOLT-4 leukemia
NCI-H226 lung = system: NCI-H226 lung
NCI-H23 lung = system: NCI-H23 lung
NCI-H322M lung = system: NCI-H322M lung
NCI-H460 NSCLC = system: NCI-H460 NSCLC
NCI-H522 lung = system: NCI-H522 lung
NCI/ADR-RES ovarian = system: NCI/ADR-RES ovarian
OVCAR-3 ovarian = system: OVCAR-3 ovarian
OVCAR-4 ovarian = system: OVCAR-4 ovarian
OVCAR-5 ovarian = system: OVCAR-5 ovarian
OVCAR-8 ovarian = system: OVCAR-8 ovarian
PC-3 prostate = system: PC-3 prostate
RPMI-8226 leukemia = system: RPMI-8226 leukemia
RXF 393 renal = system: RXF 393 renal
SF-268 CNS = system: SF-268 CNS
SF-295 CNS = system: SF-295 CNS
SF-539 CNS = system: SF-539 CNS
SK-MEL-28 melanoma = system: SK-MEL-28 melanoma
SK-MEL-5 melanoma = system: SK-MEL-5 melanoma
SK-OV-3 ovarian = system: SK-OV-3 ovarian
SN12C renal = system: SN12C renal
SNB-19 CNS = system: SNB-19 CNS
SNB-75 CNS = system: SNB-75 CNS
SR leukemia = system: SR leukemia
SW-620 colon = system: SW-620 colon
T-47D breast = system: T-47D breast
TK-10 renal = system: TK-10 renal
U251 glioblastoma = system: U251 glioblastoma
UACC-257 melanoma = system: UACC-257 melanoma
UACC-62 melanoma = system: UACC-62 melanoma
UO-31 renal = system: UO-31 renal

CNC(=O)c1cccc(-c2ccc3c(N4CCOC[C@@H]4C)nc(N4CCOC[C@@H]4C)nc3n2)c1
GI50 ([…]-0 renal): 0.348 µM
GI50 (A498 renal): 0.0329 µM
TGI (A498 renal): 0.374 µM
GI50 (A549 NSCLC): 0.152 µM
GI50 (ACHN renal): 0.162 µM
GI50 (BT-549 breast): 0.213 µM
TGI (BT-549 breast): 1.36 µM
GI50 (CAKI-1 renal): 0.214 µM
TGI (CAKI-1 renal): 5.52 µM
GI50 (CCRF-CEM leukemia): 0.197 µM
GI50 (COLO 205 colon): 0.154 µM
GI50 (DU-145 prostate): 0.341 µM
GI50 (EKVX NSCLC): 0.161 µM
TGI (EKVX NSCLC): 1.87 µM
GI50 (HCC-2998 colon): 0.662 µM
GI50 (HCT-15 colon): 0.187 µM
GI50 (HL-60(TB) leukemia): 1.36 µM
GI50 (HOP-62 NSCLC): 0.269 µM
GI50 (HOP-92 NSCLC): 0.0972 µM
TGI (HOP-92 NSCLC): 1.66 µM
GI50 (HS 578T breast): 0.105 µM
TGI (HS 578T breast): 0.381 µM
GI50 (HT29 colon): 0.546 µM
GI50 (IGROV1 ovarian): 0.0425 µM
TGI (IGROV1 ovarian): 0.284 µM
GI50 (K-562 leukemia): 0.48 µM
GI50 (KM12 colon): 0.156 µM
GI50 (LOX IMVI melanoma): 0.298 µM
TGI (LOX IMVI melanoma): 1.78 µM
GI50 (M14 melanoma): 0.143 µM
GI50 (MALME-3M melanoma): 0.019 µM
TGI (MALME-3M melanoma): 0.161 µM
GI50 (MCF7 breast): 0.0597 µM
GI50 (MDA-MB-231 breast): 0.207 µM
GI50 (MDA-MB-435 melanoma): 0.28 µM
TGI (MDA-MB-435 melanoma): 1.61 µM
GI50 (MDA-MB-468 breast): 0.0332 µM
TGI (MDA-MB-468 breast): 0.277 µM
GI50 (MOLT-4 leukemia): 0.0987 µM
TGI (MOLT-4 leukemia): 1.04 µM
GI50 (NCI-H226 lung): 0.182 µM
TGI (NCI-H226 lung): 0.857 µM
GI50 (NCI-H23 lung): 0.314 µM
GI50 (NCI-H322M lung): 0.13 µM
GI50 (NCI-H460 NSCLC): 0.0379 µM
GI50 (NCI-H522 lung): 0.0686 µM
GI50 (NCI/ADR-RES ovarian): 0.534 µM
GI50 (OVCAR-3 ovarian): 0.257 µM
GI50 (OVCAR-4 ovarian): 0.111 µM
TGI (OVCAR-4 ovarian): 0.595 µM
GI50 (OVCAR-5 ovarian): 0.139 µM
GI50 (OVCAR-8 ovarian): 0.37 µM
GI50 (PC-3 prostate): 0.0719 µM
TGI (PC-3 prostate): 8.3 µM
GI50 (RPMI-8226 leukemia): 0.0128 µM
TGI (RPMI-8226 leukemia): 0.0401 µM
GI50 (RXF 393 renal): 0.33 µM
GI50 (SF-268 CNS): 0.433 µM
GI50 (SF-295 CNS): 0.112 µM
TGI (SF-295 CNS): 0.545 µM
GI50 (SF-539 CNS): 0.305 µM
GI50 (SK-MEL-28 melanoma): 0.131 µM
TGI (SK-MEL-28 melanoma): 1.17 µM
GI50 (SK-MEL-5 melanoma): 0.062 µM
TGI (SK-MEL-5 melanoma): 0.295 µM
GI50 (SK-OV-3 ovarian): 0.116 µM
TGI (SK-OV-3 ovarian): 1.58 µM
GI50 (SN12C renal): 0.142 µM
TGI (SN12C renal): 8.26 µM
GI50 (SNB-19 CNS): 2.33 µM
GI50 (SNB-75 CNS): 0.121 µM
GI50 (SR leukemia): 0.0536 µM
TGI (SR leukemia): 0.239 µM
GI50 (SW-620 colon): 0.635 µM
GI50 (T-47D breast): 0.0204 µM
TGI (T-47D breast): 0.116 µM
GI50 (TK-10 renal): 0.26 µM
TGI (TK-10 renal): 3.83 µM
GI50 (U251 glioblastoma): 0.637 µM
GI50 (UACC-257 melanoma): 0.218 µM
TGI (UACC-257 melanoma): 0.958 µM
GI50 (UACC-62 melanoma): 0.152 µM
TGI (UACC-62 melanoma): 0.727 µM
GI50 (UO-31 renal): 0.505 µM
TGI (UO-31 renal): 7.86 µM
